PubChem BioAssay AID624344 (Sanford-Burnham Center for Chemical Genomics, 2012)
Calls of active or inactive are those of the source. How the calls were made is not given here.

Legend:
[1] = inhibitors of PAF-induced NFkB signaling in CF airway cells, dose response, cell-based, uHTS hits, panel, cytotoxicity readout (AID 624344); conditions: CF bronchial epithelial cells, PAF-induced NFkB reporter inhibition; with PAF, mean of runs
[2] = test system: Cytotoxicity; experiment: as above; conditions: CF bronchial epithelial cells, mean of runs

SMILES | IC50 [1] | IC50 [2]
CCN1CCN(Cc2ccc(NC(=O)c3ccc(C)c(NC(=O)c4csc(-c5ccncc5)n4)c3)cc2C(F)(F)F)CC1 | 6.08 µM | 19.9 µM
CCC(CO)Oc1cc(NCc2ccc(Cl)cc2Cl)c2ncn(C(C)C)c2c1 (centres undefined) | inactive | 11 µM
ON=C1c2ccccc2-c2cc(Br)ccc21 | 1.87 µM | 41.4 µM
CCC(=O)c1ccc(O)c(CC=C(C)C)c1 | 5.27 µM | 60.1 µM (inactive)
COc1ccc(-c2cc(=O)oc3c(C)c(O)ccc23)cc1 | 0.867 µM | 67.5 µM (inactive)
Cc1ccc(-n2cc(-c3ccccc3)c3c(N4CCOCC4)ncnc32)cc1 | 3.49 µM | 3.85 µM
Nc1cc2c(cc1Br)-c1ccccc1C2=NO | 11.9 µM | 60.6 µM (inactive)
O=S(=O)(Nc1nc2ccccc2nc1N1CCN(c2ccccc2F)CC1)c1ccc(Cl)cc1 | 5.66 µM | 10.5 µM
CC(=O)Nc1ccc(S(=O)(=O)N2c3ccccc3C(C)=CC2(C)C)cc1 | inactive | 44.5 µM
O=C(CCS(=O)(=O)c1ccccc1)N(CCCN1CCOCC1)c1nc2c(F)cccc2s1 | 7.63 µM | 18.1 µM
COc1cc2oc(=O)cc(-c3ccc(-c4ccc(N(C)C)cc4)cc3)c2c(OC)c1OC | 11.6 µM | 39.9 µM
O=C(Nc1ccc2c(c1)OCCO2)c1cc(-c2ccccn2)nc2ccc(Br)cc12 | inactive | 49.4 µM
Cc1ccc(-c2cc(C(=O)N/N=C/c3c(C)nn(-c4ccccc4)c3C)[nH]n2)cc1 | inactive | > 79 µM (inactive)
COc1ccc(-c2[nH]ncc2-c2ccc3c(c2)OCCO3)c(O)c1 | 0.186 µM | 65.4 µM (inactive)
CCOC(=O)c1ccc(NC(=O)Nc2nncs2)cc1 | 9.39 µM | 64 µM (inactive)
Oc1ccc(Cl)cc1Cc1cc(Cl)ccc1O | 6.19 µM | 25.2 µM
Cc1ccc(CCC(=O)Nc2ncc(Cc3cccc(Cl)c3Cl)s2)o1 | 8.87 µM | 19.1 µM
CCOc1ccc(-n2c(C)c(C(C)=O)c3cc(O)ccc32)cc1 | 1.87 µM | > 79 µM (inactive)
O=C(c1ccc(O)c(Br)c1)c1cc(Br)ccc1O | 4.08 µM | 16.4 µM
Cc1nn(-c2cccc(Cl)c2)c2nc(C(F)(F)F)[nH]c(=O)c12 | 16.9 µM | 27.4 µM
COc1ccccc1/C=C/C(=O)c1c2c(c(C)[nH]c1=O)CCCC2 | 2.94 µM | 41.6 µM

SMILES | IC50 [1] | IC50 [2]
Cc1c(NC(=O)c2cc(-c3cccs3)nc3ccccc23)c(=O)n(-c2ccccc2)n1C | 4.08 µM | 8.78 µM
COc1ccc(-c2cn[nH]c2-c2ccc(O)cc2O)cc1 | 1.76 µM | > 79 µM (inactive)
C[C@H](CO)N1C[C@H](C)[C@@H](CN(C)C(=O)Nc2ccc3c(c2)OCO3)Oc2c(NC(=O)Nc3ccc(C(F)(F)F)cc3)cccc2C1=O | 3.05 µM | 5.77 µM
Cc1ccc(S(=O)(=O)CC(CN2CCCCC2)N2CCCCC2)cc1 (centres undefined) | 6.85 µM | 33.3 µM
Fc1ccccc1-c1csc(=Nc2cccnc2)n1CCCn1ccnc1 | 5.92 µM | 48.4 µM
O=C(/C=C/c1cccc([N+](=O)[O-])c1)NC(=S)Nc1ccc(CN2CCOCC2)cc1 | 5.19 µM | 19.8 µM
CCOc1ccc(CCN2C(=S)N([C@@H](CC(C)C)CN3CCCC3CN3C(=S)NC[C@@H]3CC(C)C)C[C@@H]2Cc2ccc(O)cc2)cc1 (some centres undefined) | 14.9 µM | 64.1 µM (inactive)
Cc1c(Cl)cccc1NC(=O)COC(=O)c1c2c(nc3ccccc13)CCN(Cc1ccccc1)C2 | 6.85 µM | 13.5 µM
COc1ccccc1Cn1c(=O)c2ccccc2n2c(Sc3ncnc4sccc34)nnc12 | 3.9 µM | 5.9 µM
Cc1cccc(NC(=O)c2cc(-c3ccc(C)s3)nc3ccccc23)n1 | 5.26 µM | 42.4 µM
CN(Cc1ccco1)c1ncnc2ccc(-c3ccoc3)cc12 | 8.08 µM | 50.9 µM (inactive)
O=C1Nc2ccccc2/C1=C/c1ccnc2ccccc12 | 5.85 µM | 36.3 µM
Cc1nn(-c2ccccc2)c(Cl)c1C(=O)N1CCN(c2ncnc3c2cnn3-c2ccccc2)CC1 | 3.18 µM | 1.42 µM
COc1cccc(/C=N/n2c(C3CCCCC3)n[nH]c2=S)c1 | 3.97 µM | 33.7 µM
COc1ccc(-c2cc(NC=O)c3ncc(-c4ccc(OC)c(OC)c4)n3c2)c(OC)c1 | 11.7 µM | 29.8 µM
Cc1cccc(N(Cc2cc(=O)[nH]c3ccccc23)C(=O)CCl)c1 | 1.23 µM | 2 µM
Cc1cccc(N2CCN(C(=O)CCn3c(=S)[nH]c4cc5c(cc4c3=O)OCO5)CC2C)c1 (centres undefined) | 6.2 µM | 18.5 µM
CCC1(O)C(=O)OCc2c1cc1n(c2=O)Cc2cc3cc(O)ccc3nc2-1 (centres undefined) | 0.284 µM | 1.09 µM
NS(=O)(=O)c1ccc(CCNC(=O)c2ccc(C#CC3(O)CCCCC3)cc2)cc1 | 3.47 µM | 5.01 µM
COc1ccc2c(=O)cc(-c3ccncc3)oc2c1OC | 3.97 µM | 13.6 µM
Cc1ncc(CC(=O)n2cc(C(=O)c3cc(Cl)ccc3O)cn2)s1 | 7.56 µM | 44.5 µM
